Data: ChEMBL document CHEMBL1806355, “Synthesis and evaluation of 1-cyclopropyl-2-thioalkyl-8-methoxy fluoroquinolones” (2011)
In brackets after ≈: the same amount, converted by molar mass. Activity calls are given as the source filed them. No cut-off for these calls is given here.

Legend:
[1] = system: Escherichia coli; test: Antibacterial activity against Escherichia coli KD65; type: functional
[2] = system: Escherichia coli; test: Antibacterial activity against tolC knockout Escherichia coli KD1397; type: functional
[3] = system: Mycolicibacterium smegmatis; test: Antibacterial activity against Mycobacterium smegmatis KD1163; type: functional
[4] = Inhibition of DNA gyrase

Structure (SMILES) | MIC [1] | MIC [2] | MIC [3] | inhibition [4]
CCSc1c(C(=O)O)c(=O)c2cc(F)c(N3C[C@@H]4CCCN[C@@H]4C3)c(OC)c2n1C1CC1 | > 50 µg/mL | > 50 µg/mL | 50 µg/mL (≈ 108 µM) | Active
COc1c(N2C[C@@H]3CCCN[C@@H]3C2)c(F)cc2c(=O)ccn(C3CC3)c12 | > 200 µg/mL | 100 µg/mL (≈ 280 µM) | > 200 µg/mL | 
O=c1ccn(C2CC2)c2cc(N3CCNCC3)c(F)cc12 | 50 µg/mL (≈ 174 µM) | 1.56 µg/mL (≈ 5.43 µM) | 6.25 µg/mL (≈ 21.8 µM) | 
CCSc1cc(=O)c2cc(F)c(N3CCNCC3)c(OC)c2n1C1CC1 | > 50 µg/mL | 25 µg/mL (≈ 66.2 µM) | > 50 µg/mL | Active
O=C(O)c1cn(C2CC2)c2cc(N3CCNCC3)c(F)cc2c1=O [CIPROFLOXACIN] | 0.04 µg/mL (≈ 0.121 µM) |  | 0.156 µg/mL (≈ 0.471 µM) | 
CCSc1c(C(=O)O)c(=O)c2cc(F)c(N3CCNCC3)c(OC)c2n1C1CC1 | 200 µg/mL (≈ 475 µM) | 12.5 µg/mL (≈ 29.7 µM) | > 200 µg/mL | Active
CC1Sc2c(C(=O)O)c(=O)c3cc(F)c(N4CCNCC4)cc3n21 (stereo unspecified) [ULIFLOXACIN] | 0.062 µg/mL (≈ 0.177 µM) | 0.016 µg/mL (≈ 0.0458 µM) | 3.13 µg/mL (≈ 8.96 µM) | 
COc1c(N2C[C@@H]3CCCN[C@@H]3C2)c(F)cc2c(=O)cc(SC(C)C)n(C3CC3)c12 | > 50 µg/mL | 50 µg/mL (≈ 116 µM) | 50 µg/mL (≈ 116 µM) | Active
COc1c(N2CCNCC2)c(F)cc2c(=O)cc(SC(C)C)n(C3CC3)c12 | > 50 µg/mL | > 50 µg/mL | > 50 µg/mL | Active
CCSc1cc(=O)c2cc(F)c(N3C[C@@H]4CCCN[C@@H]4C3)c(OC)c2n1C1CC1 | > 200 µg/mL | 100 µg/mL (≈ 239 µM) | > 200 µg/mL | Active
COc1c(N2C[C@@H]3CCCN[C@@H]3C2)c(F)cc2c(=O)c(C(=O)O)cn(C3CC3)c12 [MOXIFLOXACIN] | 0.156 µg/mL (≈ 0.389 µM) | 0.004 µg/mL (≈ 0.00996 µM) | 0.08 µg/mL (≈ 0.199 µM) | 
CC1Sc2cc(=O)c3cc(F)c(N4CCNCC4)cc3n21 (stereo unspecified) [DESCARBOXYULIFLOXACIN] | > 200 µg/mL | 200 µg/mL (≈ 655 µM) | 200 µg/mL (≈ 655 µM) | 
